{
  "source": "patent US20100137381A1",
  "about": "“ACETAMIDE DERIVATIVES AS POTASSIUM CHANNEL MODULATORS” (NeuroSearch A/S, priority 2007, published 2010)",
  "key": {"[1]": {"biological_target": "chloride channel (human erythrocyte chloride conductance)", "assay": "In vitro human erythrocyte chloride conductance", "format": "cell-based", "settings": "suspensions of human erythrocytes; calculated from dose-response of membrane Cl-conductance (GCl); read-out: KD-value, chloride conductance block", "excerpt": "In this example the chloride channel blocking activity of an acetamide derivative representative of the invention, i.e. Compound 3 (2-(4-Chloro-phenyl)-N-[4′-chloro-3-(1H-tetrazol-5-yl)-biphenyl-4-yl]-acetamide), has been determined.\nAll dose-response experiments were therefore performed by concomitant measurements of conductive netfluxes of Cl^− (JCl) and membrane potentials (Vm) in suspensions of erythrocytes as described by Bennekou et al. (Bennekou P and Christophersen P: Flux ratio of Valinomycin—Mediated K^+Fluxes across the Human Red Cell Membrane in the presence of the Protronophore CCCP; J. Membrane Biol. 1986 93 221-227).\nThe membrane Cl-conductances (GCl) were calculated according to Hodgkin et al. (Hodgkin A L and Huxley A F: The components of membrane conductance in the giant axon of Loligo; J. Physiol. Lond. 1952 116 449-472) using the following equation: […]\nwhere F is the Faraday constant and ECl is the Nernst potential for the Cl-ion."}, "[2]": {"biological_target": "T1, BK channels heterologously expressed in Xenopus laevis oocytes (Homo sapiens, UniProt Q12791)", "T1 construct": "expressed in transfected cells; host or cells: Xenopus laevis oocytes", "T1 sequence (Q12791 whole entry)": "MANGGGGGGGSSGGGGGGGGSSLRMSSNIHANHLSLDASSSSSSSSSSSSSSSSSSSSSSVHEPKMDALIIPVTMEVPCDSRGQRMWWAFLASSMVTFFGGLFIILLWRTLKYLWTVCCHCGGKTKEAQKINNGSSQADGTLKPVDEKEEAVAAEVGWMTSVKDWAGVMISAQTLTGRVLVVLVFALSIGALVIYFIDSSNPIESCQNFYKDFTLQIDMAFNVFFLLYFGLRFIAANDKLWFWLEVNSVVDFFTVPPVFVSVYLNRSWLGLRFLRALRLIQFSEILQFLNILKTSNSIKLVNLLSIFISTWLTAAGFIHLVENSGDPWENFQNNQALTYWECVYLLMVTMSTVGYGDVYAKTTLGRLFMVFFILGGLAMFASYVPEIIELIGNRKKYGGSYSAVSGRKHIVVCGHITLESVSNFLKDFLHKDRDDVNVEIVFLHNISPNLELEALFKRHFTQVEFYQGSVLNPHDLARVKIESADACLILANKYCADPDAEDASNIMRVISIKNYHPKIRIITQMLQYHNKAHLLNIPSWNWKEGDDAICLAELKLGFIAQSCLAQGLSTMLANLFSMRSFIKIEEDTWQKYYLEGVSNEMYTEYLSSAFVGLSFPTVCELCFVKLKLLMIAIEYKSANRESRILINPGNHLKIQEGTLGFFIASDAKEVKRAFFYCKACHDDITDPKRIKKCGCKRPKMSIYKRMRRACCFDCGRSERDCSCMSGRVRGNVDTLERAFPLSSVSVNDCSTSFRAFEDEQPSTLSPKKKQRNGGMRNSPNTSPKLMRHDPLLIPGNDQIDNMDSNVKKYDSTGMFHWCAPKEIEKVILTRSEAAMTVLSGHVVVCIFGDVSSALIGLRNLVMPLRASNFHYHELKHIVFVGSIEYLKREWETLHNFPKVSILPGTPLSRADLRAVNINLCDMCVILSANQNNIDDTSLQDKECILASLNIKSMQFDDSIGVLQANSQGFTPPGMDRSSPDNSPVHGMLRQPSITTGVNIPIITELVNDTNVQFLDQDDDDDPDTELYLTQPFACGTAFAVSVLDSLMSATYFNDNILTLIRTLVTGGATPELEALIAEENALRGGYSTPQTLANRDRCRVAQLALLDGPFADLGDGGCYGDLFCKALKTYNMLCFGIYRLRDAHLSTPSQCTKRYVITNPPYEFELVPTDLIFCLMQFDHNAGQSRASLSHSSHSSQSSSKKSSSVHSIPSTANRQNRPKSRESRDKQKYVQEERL", "assay": "BK channel activation, two-electrode voltage clamp in Xenopus laevis oocytes", "format": "cell-based", "settings": "depolarising step to +20 mV", "experimental": "In this example the BK channel opening activity of two acetamide derivatives of to the invention, i.e. 2-(3,5-difluoro-phenyl)-N-[3-(5-oxo-4,5-dihydro-[1,2,4]oxadiazol-3-yl)-4′-trifluoromethyl-biphenyl-4-yl]-acetamide (Compound 7), and 2-(3,5-bis-trifluoromethyl-phenyl)-N-[4-bromo-2-(1H-tetrazol-5-yl)-phenyl]-acetamide (Compound 2) herein designated Compound A and Compound B, respectively, is determined using BK channels heterologously expressed in Xenopus laevis oocytes.\nThe electrical current through the BK channel is measured by conventional two-electrode voltage clamp. BK current is activated by repeated step protocols. In brief, this protocol goes from a resting membrane potential of −40 mV lasting for 5 s to a depolarised step to +20 mV lasting for 1 s. The protocol was repeated continuously.\nHaving reached a stable current level, Compound A (3 μM) and Compound B (10 μM), respectively, was added. A marked increase in the current activated by depolarisation could be observed. The BK current activity returned to baseline after approximately 30-80 seconds of wash. In summary BK current was increased by 367±92% in the presence of 3 μM of Compound A (n=3, SD value), and 327±88% in the presence of 10 μM of Compound B."}},
  "data": [
    {"smiles": "O=C(Cc1ccc(Cl)cc1)Nc1ccc(-c2ccc(Cl)cc2)cc1-c1nnn[nH]1", "note": "[Compound 3, 2-(4-Chloro-phenyl)-N-[4′-chloro-3-(1H-tetrazol-5-yl)-biphenyl-4-yl]-acetamide]", "values": [
      {"measurement": "Kd", "setting": "[1]", "value": 90, "unit": "nM"}
    ]},
    {"smiles": "O=C(Cc1cc(F)cc(F)c1)Nc1ccc(-c2ccc(C(F)(F)F)cc2)cc1-c1noc(=O)[nH]1", "note": "[Compound A, 2-(3,5-difluoro-phenyl)-N-[3-(5-oxo-4,5-dihydro-[1,2,4]oxadiazol-3-yl)-4′-trifluoromethyl-biphenyl-4-yl]-acetamide]", "values": [
      {"measurement": "BK current increase", "setting": "[2]; 3 μM compound, n=3, SD value", "value": "367±92", "unit": "%"}
    ]},
    {"smiles": "O=C(Cc1cc(C(F)(F)F)cc(C(F)(F)F)c1)Nc1ccc(Br)cc1-c1nnn[nH]1", "note": "[Compound B, 2-(3,5-Bis-trifluoromethyl-phenyl)-N-[4-bromo-2-(1H-tetrazol-5-yl)-phenyl]-acetamide]", "values": [
      {"measurement": "BK current increase", "setting": "[2]; 10 μM compound", "value": "327±88", "unit": "%"}
    ]}
  ]
}
